This assay is described as follows: Body weight change in volunteers after 21 days of oral test capsules. The assay is classed as in vivo, human. Particulars: oral capsules before meals, 24, 48 or 72 μg of test substance per day for 21 days, body weight 3 weeks after initiation vs before, placebo control group increased. The protocol: 13,14-dihydro-15-keto-16,16-difluoro-PGE1 was used as the test substance. Test capsule for oral administration containing 24 μg of the test substance and placebo capsule made from inert ingredients which was identical to the test capsule were prepared.
Volunteers were divided into 4 groups. The test groups received 24, 48 and 72 μg of the test substance per day respectively and the control group received the placebo. All volunteers were instructed to take one capsule before each meal (morning-, day- and evening-time) everyday for 21 days. Test group I (27 volunteers) received 24 μg of the test substance per day by taking the test capsule at the morning time and the placebo capsule at each of the day and evening times; test group II (32 volunteers) received 48 μg of the test substance per day by taking the test capsule at each of the morning and evening times and the placebo capsule at the day time; test group III (32 volunteers) received 72 μg of the test substance by taking the test capsule three times per day. Control group (33 volunteers) received the placebo capsule every time. Volunteers were instructed to take each capsule with 8 ounces of water prior to eating a meal. Body weight was measured before and 3 weeks after the initiation of the administration.

Entries after “also recorded” stand apart in the source; their conditions may differ.

Regarding `CCCCC(F)(F)C(=O)CCC1C(O)CC(=O)C1CCCCCCC(=O)O` (stereo not shown) [13,14-dihydro-15-keto-16,16-difluoro-PGE1], the “changes of body weight from the pre-values” was “body weight reductions were observed in all test groups; also recorded: decreased in a dose dependent manner”.
